Laboratory results: US20060183677A1, “Novel exendin agonist formulations and methods of administration thereof” (priority 2002, published 2006)

Columns and labels:
Sprague-Dawley rats = assay: Insulinotropic action during intravenous glucose challenge in rats (Example 5); assay type: in vivo; settings: 30 pmol/kg/min i.v.
diabetic db/db mice = assay: Glucose lowering in diabetic db/db mice (dose response); assay type: in vivo
Experimental: C57BLKS/J-m-db/db mice, at least 3 months of age were utilized for the study. The mice were obtained from The Jackson Laboratory and allowed to acclimate for at least one week before use. Mice were housed in groups of ten at 22° C.±1° C. with a 12:12 light:dark cycle, with lights on at 6 a.m. All animals were deprived of food for 2 hours before taking baseline blood samples. Approximately 70 μl of blood was drawn from each mouse via eye puncture, after a light anesthesia with metophane. […] Blood samples were drawn again, using the same procedure, after exactly one hour from the injections, and plasma glucose concentrations were measured. For each animal, the % change in plasma value, from baseline value, was calculated and a dose dependent relationship was evaluated using Graphpad Prizm™ software.

humans = settings: acute treatment; cited from earlier work

## GLP-1[7-36]NH2
Sprague-Dawley rats
  60-min glucose AUC: 1096 ± 68 mM·min
Sprague-Dawley rats; D-glucose […] i.v.
  plasma glucose after glucose injection: 23.7 mM
Sprague-Dawley rats; n.s. versus saline
  increase of 60-min insulin AUC versus saline-treated rats: 20%
Diabetic db/db mice
  Glucose-lowering ED50: 20.6 µg
humans
  acute effect on insulin sensitivity: appears not to immediately alter insulin sensitivity
